PubChem BioAssay AID449762 (Southern Research Specialized Biocontainment Screening …, 2010)
Inconclusive results are not listed.

Tested on: M. tuberculosis H37Rv growth inhibition, 7H9 media
Experiment: M. tuberculosis growth inhibition, HTS (AID 449762);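 note: bacterial growth assessed after seven days of incubation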
Details: for IC90: measured here: IC90 growth inhibition

SMILES	IC50	IC90
Cc1sc2ncnc(N3CCC(C(=O)NCC(=O)Nc4ccc(F)c(F)c4)CC3)c2c1C	37.9 µM	50 µM
Nc1c(-c2ccccn2)cnn1-c1nc(-c2ccc(F)cc2)cs1	12.6 µM	> 100 µM
O=C1c2ccccc2CC1Sc1nnc(-c2ccncc2)o1 (stereo unspecified)	20.6 µM	30 µM
Cc1ccc2c(c1)Oc1ccc(NC(=O)CCl)cc1C(=O)N2	7.88 µM	> 100 µM
C(=N\NC1=Nc2cccc3cccc1c23)/c1cccnc1	13.4 µM	> 100 µM
CN(Cc1ccc(Cl)s1)C(=O)CCl	0.66 µM	0.91 µM
CCOC(=O)c1nn(-c2ccc(C)cc2)c2nc(Nc3ccccc3)cc(=O)n12	4.1 µM	12.7 µM
CC1=NN(C(=O)c2ccc(Br)cc2)C(O)(c2ccccc2)C1 (stereo unspecified)	48.1 µM	65.6 µM
Cc1cc(C2=NNC(=NC3CCCCC3)SC2)c(C)n1-c1c(C)n(C)n(-c2ccccc2)c1=O	88.2 µM	> 100 µM
CC1=NN(c2ccc(C)c(C)c2)C(=O)/C1=C\C=C\c1ccc([N+](=O)[O-])o1	3.14 µM	15.5 µM
CCOC(=O)CSCC(=O)N1CCC(Cc2ccccc2)CC1	5.35 µM	19.6 µM
CCOC(=O)CSc1ncc(OC)c(Sc2ccc(OC)cc2)n1	7.53 µM	73.4 µM
C[n+]1c(-c2ccccc2)cc(CCCCc2cc(-c3ccccc3)[n+](C)c(-c3ccccc3)c2)cc1-c1ccccc1	17.3 µM	21.7 µM
CCc1ccc(NC(=O)CSc2nc3n[nH]c(C)c3c(=N)n2-c2cccc(OC)c2)cc1	13.2 µM	37.1 µM
CCOc1ccc(N2CCc3c(C)nc(SC)nc32)cc1	< 0.2 µM	> 100 µM
CCCC(/C=C/c1ccc(OC(C)=O)cc1)=C1/c2ccccc2C(=O)N1c1ccccc1	8.07 µM	16.1 µM
O=C(CSc1ncnc2nc[nH]c12)c1ccc(Cl)cc1	12.1 µM	13.9 µM
CCCCOC(=O)CCN1C(=O)/C(=C2\SC(=S)N(CCC(=O)OCCCC)C2=O)SC1=S	2.98 µM	6.96 µM
C=CCOc1ccc2c(c1)C(=NO)c1cc(OCC=C)ccc1-2	5.82 µM	9.27 µM
Cc1nc(-c2ccc(Cl)cc2)sc1C1(C)CC(c2ccc(C#N)cc2)=NO1 (stereo unspecified)	51.4 µM	> 100 µM
CCC(=O)NC(=S)Nc1ccc(NC(=O)COc2ccc(Cl)cc2Cl)cc1	88.1 µM	> 100 µM
CCOc1cc(NC(=O)CCl)c(OCC)cc1NC(C)=O	< 0.2 µM	5.99 µM
CCOC(=O)CCCNC(=O)COC(=O)c1cc(Br)c(Br)s1	9.86 µM	> 100 µM

SMILES	IC50	IC90
CCOc1ccc(/C=N/OCC(=O)Nc2cc(C)on2)cc1	29.4 µM	> 100 µM
COc1cccc(NC(=O)C2CCN(Cc3cnn(-c4ccccc4)c3-n3cccc3)CC2)c1	48.4 µM	56.2 µM
O=C(OCC(=O)N1CCN(c2ccccc2)CC1)c1cnc(Cl)c(Cl)c1	20 µM	41.7 µM
CCN1c2ccccc2N(C)C1(C)c1ccccc1 (stereo unspecified)	6 µM	6.79 µM
CC(=O)Nc1sc2c(c1-c1nc3ccccc3s1)CCN(C(C)C)C2	5.88 µM	6.66 µM
CCOc1ccc2nc(/N=C/c3nc(-c4ccccc4)oc3O)sc2c1	–	> 100 µM
CCOC(=O)CSc1cc(=O)n(C)c2cc(Cl)ccc12	< 0.2 µM	73.9 µM
COC(=O)C1C(O)C(C)C(O)C(C)/C=C\C=C(/C)C(=O)Nc2c(C)c(OC(C)=O)c3c(c2O)C(=O)C(C)=C2OCOC(=C23)/C(C)=C/C(C)(O)C(O)C(C)C1O (stereo unspecified)	< 0.2 µM	< 0.2 µM
O=C(C/C=N\OCc1ccc([N+](=O)[O-])cc1)Nc1ccc(F)cc1F	20.3 µM	98.4 µM
CCOC(=O)CSc1nn(-c2ccccc2)c(=S)s1	4.75 µM	9.22 µM
CC(C)Oc1ccc(-c2nc(NCC3CCCO3)c3ccccc3n2)cc1 (stereo unspecified)	68 µM	91.3 µM
O=c1c2ccccc2nc(/C=C/c2ccccc2)n1-c1ccc(O)cc1	–	> 100 µM
O=C(CSC1=Nc2ccccc2C2=NC(c3ccccc3)C(=O)N12)NC1CCCCC1 (stereo unspecified)	0.66 µM	1.29 µM
COC(=O)COc1ccc(-c2ccccc2)cc1C=O	11 µM	19 µM
CC(=O)Nc1ccc(N2C(C(C)=O)=NN(c3ccc(Cl)cc3)C2c2sccc2C)cc1 (stereo unspecified)	83.9 µM	93.1 µM
O=C(CCc1c[nH]c2ccccc12)N1CCN(S(=O)(=O)c2ccccc2)CC1	94.3 µM	> 100 µM
Cc1cccc(C2=N/C(=C\c3cccs3)C(=O)O2)c1	2.68 µM	15.5 µM
Cc1ccc(CN2CCN(/N=C/c3ccc(Cl)c([N+](=O)[O-])c3)CC2)cc1	22.7 µM	36.5 µM
CCCOc1ccc2oc(=O)c3c(c2c1)CCCN3C(=O)CN1CCN(c2ncccn2)CC1	20.8 µM	33.8 µM
O=C(c1cc2nc(-c3ccc(F)cc3)cc(C(F)(F)F)n2n1)N1CCCCC1c1cccnc1 (stereo unspecified)	14 µM	31.4 µM
CS/C(Nc1cc(Cl)ccc1Cl)=C(/C#N)C(=O)c1ccco1	3.6 µM	40.2 µM
Nc1c(C(=O)OCC2CCCO2)c2nc3ccccc3nc2n1C1CCCC1 (stereo unspecified)	54.5 µM	> 100 µM
CSc1ccc(NC(=O)Nc2cccn(Cc3ccccc3)c2=O)cc1	18.5 µM	> 100 µM

SMILES	IC50	IC90
CCOC(=O)c1cc(-c2ccc(N3CCOCC3)cc2)nn1-c1ccccc1	13.4 µM	45.2 µM
O=C1CCc2ccc(OCCCCN3CCN(c4cccc(Cl)c4Cl)CC3)cc2N1	13.1 µM	> 100 µM
COC(=O)C(C)Oc1ccc(Cc2ncc(C(F)(F)F)cc2Cl)cc1 (stereo unspecified)	2.43 µM	5.77 µM
Cc1cc(C(=O)CCl)c(C)n1CCc1ccc(Cl)cc1	0.34 µM	2.18 µM
CN(C)C1(CNC(=O)Nc2ccc(Cl)c(Cl)c2)CCCCC1	11.2 µM	12.5 µM
CC[C@@H](C)[C@H](CN[C@H](CNC)C(C)C)NC[C@@H](C)c1ccc(CC(C)C)cc1	11.3 µM	12.6 µM
Cc1c(NC(=O)c2ccc([N+](=O)[O-])o2)cccc1-c1nc2ncccc2o1	8.36 µM	> 25 µM
CCc1ccc(/C=C2/C(=O)N(C)C(=S)N2CC(=O)OC)s1	1.46 µM	5.75 µM
CCCn1c(N2CCN(Cc3ccc(Cl)cc3)CC2)nc2ccccc21	11.3 µM	23.5 µM
CN1C2CCC1/C(=C/c1ccccn1)C(=O)/C2=C\c1ccccn1	16.4 µM	25.8 µM
C/C(CC(=O)Nc1ccc(C)c(Cl)c1)=N\NC(=O)Cc1cnc(N)s1	–	> 100 µM
Oc1ccc(/C=N/n2c3ccccc3c3ccccc32)cc1	–	> 100 µM
CCN=c1scc(-c2ccco2)n1/N=C/c1ccc(OC)c(O)c1	12.3 µM	41.8 µM
N/C(Cc1ccc([N+](=O)[O-])cc1)=N\OC(=O)c1ccc2ccccc2c1	22.5 µM	> 100 µM
CCOc1ccc(-c2[nH]ncc2-c2ccc(Cl)cc2)c(O)c1	46.8 µM	66.5 µM
CCCc1ncc(CN2CCCC(C(=O)Nc3ccc(-c4cccc(OC)c4)cc3)C2)cn1 (stereo unspecified)	–	> 100 µM
O=[N+]([O-])c1ccc(S(=O)(=O)c2ccccc2)nc1	1.01 µM	2.08 µM
Cc1cc(NC(=O)CCl)no1	1.31 µM	3.6 µM
O=C(COc1cc(O)c2c(=O)c3ccccc3oc2c1)OCc1ccccc1	–	> 100 µM
O=C(c1ccc(-c2ccccc2)c(F)c1)C1CCCN(C(=O)c2cncs2)C1 (stereo unspecified)	35.9 µM	46.8 µM
CC1(CCc2ccccc2)NC(=S)N(c2ccc(Cl)cc2)N1 (stereo unspecified)	–	> 100 µM
Cc1nn(-c2ccccc2)c(N)c1C(c1ccc(C(C)C)cc1)c1c(C)nn(-c2ccccc2)c1N	20.4 µM	27.1 µM
C=C(CCC(=O)c1ccccc1)C(=O)c1ccccc1	7.32 µM	18.7 µM

SMILES	IC50	IC90
O=C(/C=C/c1ccccc1)N1CCN(CCN2C(=O)c3cccc4cccc(c34)C2=O)CC1	1.95 µM	3.87 µM
O=C1c2cccc3c([N+](=O)[O-])ccc(c23)C(=O)N1O	8.11 µM	13.8 µM
COc1ccc(-n2nc3c(c2NC(=O)CCl)CSC3)cc1	4.85 µM	9.39 µM
C/C(=C\C(=S)Nc1ccccc1)Nc1ccc2ccccc2c1	40.6 µM	52.9 µM
CCOC(=O)c1c(/N=C/N(C)C)sc(/C=N/Nc2ccccc2)c1-c1ccccc1Cl	81.8 µM	> 100 µM
CN(C)CCNc1ncnc2c1sc1nc(-c3ccccc3)c3c(c12)CCCC3	17.7 µM	20.7 µM
CN(C)CCCNC(=O)c1ccc(-c2nc(-c3ccc(Cl)cc3)cs2)cc1	27.8 µM	42.3 µM
Cc1cc(C(=O)CCl)c(C)n1-c1cccc([N+](=O)[O-])c1	< 0.2 µM	1.54 µM
COc1cc(NC(=O)c2cccs2)c(C(=O)OCC(=O)NCc2ccco2)cc1OC	23.9 µM	> 100 µM
CCc1noc(C)c1C(=O)Nc1nc(-c2ccc(F)cc2)c(C)s1	8.8 µM	36.9 µM
O=c1cc(N=Nc2ccc(Cl)cc2)[nH]c(=O)[nH]1	42 µM	> 100 µM
N#Cc1c(SCC(N)=O)nsc1SCc1ccccc1Cl	12.6 µM	34.7 µM
O=C(Nc1ccc([N+](=O)[O-])cc1)Nc1ccc(OC(F)F)c(Cl)c1	2.83 µM	4.03 µM
C/C(=N\NC(N)=S)c1ccc(Cl)s1	12 µM	17.7 µM
Cc1c(CN2CCC(CO)(Cc3cccc(C(F)(F)F)c3)CC2)c2ccccc2n1C	20.6 µM	28.9 µM
C=CCN(CC=C)C(=S)NC(=O)c1ccc(-c2ccccc2)cc1	10.8 µM	14.1 µM
CCc1ccc(N=CC23c4ccccc4C(c4ccccc42)C2C(=O)N(c4ccc(OC)cc4)C(=O)C23)cc1 (stereo unspecified)	53.1 µM	> 100 µM
COC(=O)[C@H](CCSC)NC(=O)N1CCN(c2cccc(C(F)(F)F)c2)CC1	14.4 µM	40.5 µM
CCNCC(=O)N1c2ccccc2CCc2ccc(NC(=O)OC(C)C)cc21	55.9 µM	71.3 µM
O=c1oc(-c2cccs2)nc2c1cnn2-c1ccccc1	64.5 µM	> 100 µM
